Results: US9611273B2, “Trioxane thioacetal monomers and dimers and methods of use thereof” (THE JOHNS HOPKINS UNIVERSITY, priority 2012, dated 2017)

What was measured:
[1] = system: P. berghei malaria parasites; assay: In vivo antimalarial efficacy, single oral dose of trioxane plus mefloquine hydrochloride in P. berghei-infected mice; settings: for % suppression of parasitemia (on day 3 post infection) / average survival (days) after infection: single oral dose of 6 mg/kg trioxane and 18 mg/kg mefloquine hydrochloride (control: mefloquine-HCl only), P. berghei-infected mice; for average survival (days) after infection: groups of 4; for mouse survival post infection: single oral dose 6 mg/kg trioxane plus 18 mg/kg mefloquine, or 18 mg/kg mefloquine alone
Protocol: Using a standard protocol, see Slack, et al., 2012, 20-gram mice were infected by intraperitonial injection with P. berghei malaria parasites. One day after infection, each mouse in groups of 4 mice received a single oral dose of 6 mg/kg body weight of a trioxane thioacetal combined with 18 mg/kg of the long-lived antimalarial mefloquine hydrochloride. In all cases, parasitemia was decreased by at least 99% on day 3 post infection. Malaria-infected mice receiving no antimalarial drug died on day 6 or 7 post infection. Critically, control groups of mice receiving 6 mg/kg of the popular trioxane drug artemether (2b) plus 18 mg/kg of mefloquine, or just 18 mg/kg of mefloquine alone, survived for about 3 weeks post infection. In contrast, several of the presently disclosed trioxane thioacetals prolonged mouse survival for longer than 3 weeks, and in some instances produced partial cures; for example, 2 of 4 mice in one group (diisopropyl carbamate 3u) appeared healthy and had no detectable parasitemia on day 30 post infection.
The antimalarial efficacy of representative presently disclosed C-10 thioacetals, as well as controls, is summarized in Table 1, which includes the parasitemia levels for mice on day 3 post-infection.

P388 leukemia = settings: NCI Report on NSC 369397, tested on 25 Oct. 1983; cited from earlier work
[2] = single oral dose 6 mg/kg plus 18 mg/kg mefloquine hydrochloride

Compound	% suppression of parasitemia (on day 3 post infection) [1]	average survival (days) after infection [1]	antimalarial efficacy in words [1, 2]	further results
CCCSC(=O)OCCCS[C@@H]1O[C@@H]2O[C@@]3(C)CC[C@H]4[C@H](C)CC[C@@H]([C@H]1C)[C@@]24OO3 [compound 110, Art-10α-S(CH2)3OC(O)SnPr]	>99.9%	19.3 days		
Cl.OC(c1cc(C(F)(F)F)nc2c(C(F)(F)F)cccc12)C1CCCCN1 (centres unmarked) [mefloquine-HCl only, mefloquine hydrochloride, reference compound]	>99.9%	14.0 days		mouse survival post infection [1]: about 3 weeks
CSC(=O)OCCCS[C@@H]1O[C@@H]2O[C@@]3(C)CC[C@H]4[C@H](C)CC[C@@H]([C@H]1C)[C@@]24OO3 [compound 109, Art-10α-S(CH2)3OC(O)SCH3]	>99.9%	24.5 days		
CO[C@H]1O[C@@H]2O[C@@]3(C)CC[C@H]4[C@H](C)CC[C@@H]([C@H]1C)[C@@]24OO3 [artemether, reference compound]				mouse survival post infection [1]: about 3 weeks
CC(C)N(C(=O)OCCCS[C@@H]1O[C@@H]2O[C@]3(C)CC[C@H]4[C@H](C)CC[C@@H]([C@H]1C)[C@@]24OO3)C(C)C [3u, AMJ-Art-10α-S(CH2)3OC(O)N(iPr)2]			most highly efficacious	mice appearing healthy with no detectable parasitemia on day 30 post infection (partial cure) ([1]; single oral dose 6 mg/kg plus 18 mg/kg mefloquine hydrochloride, group of 4 mice): 2 of 4
C[C@H]1[C@H](SCCCOCn2nnc3ccccc32)O[C@@H]2O[C@]3(C)CC[C@H]4[C@H](C)CC[C@@H]1[C@@]24OO3 [3k, Art-10α-S(CH2)3OCH2—N-benzotriazole]			most highly efficacious	
C[C@H]1[C@H](SCCCOC(=O)SC(C)(C)C)O[C@@H]2O[C@@]3(C)CC[C@H]4[C@H](C)CC[C@@H]1[C@@]24OO3 [compound 111, Art-10α-S(CH2)3OC(O)StBu]	99.9%	29.8 days		
CSC(=S)OCCCS[C@@H]1O[C@@H]2O[C@]3(C)CC[C@H]4[C@H](C)CC[C@@H]([C@H]1C)[C@@]24OO3 [compound 114, Art-10α-S(CH2)3OC(S)SCH3]	99.9%	22.0 days		
C[C@@H]1CC[C@H]2[C@@H](C)C(=O)O[C@@H]3O[C@@]4(C)CC[C@@H]1[C@]32OO4 [artemisinin]				activity against P388 leukemia (P388 leukemia): inactive
C[C@H]1[C@H](SCCCOCc2ccc(F)cc2)O[C@@H]2O[C@]3(C)CC[C@H]4[C@H](C)CC[C@@H]1[C@@]24OO3 [3h, Art-10α-S(CH2)3OCH2PhF-4]			most highly efficacious	
